The nature of data set [1]: logP by HPLC retention time correlation. It is filed as physicochemical. The following applies: standardized reversed phase HPLC system. The protocol:
The logP values were recorded using HPLC analysis. Thus, the retention time of the test compound in a standardized reversed phase HPLC system is correlated with the retention times of compounds with known logP values.
In addition to the logD7.4 values, the logP values of the fluorescent probes were recorded by HPLC, i.e., after calibration of the method, the retention times were correlated with the logP values or the compounds [33]. […] Fluorescein-labeled ligands 21a and 21b are considerably more polar than the corresponding bodipy-labeled senicapoc derivatives.

Details of data set [2]: method as in PMID 36315933. As to conditions: previously reported values; cited from earlier work.
For data set [3], the target named is T1, KCa3.1 channel in A549-3R cells (Homo sapiens, UniProt O15554).
T1 construct: the non-small cell lung cancer cell line A549-3R with a high expression of the KCa3.1 channel was employed; endogenous in cells; host or cells: A549-3R cells
Also on record: method as in PMID 36315933. The following applies: previously reported; cited from earlier work.

Data set [4] concerns the target T1, KCa3.1 channel in A549-3R cells. Kind of data set: Staining of fixed A549-3R tumor cells (Protocol 1), fluorescence microscopy. The data set is classed as cell-based. The following applies: 10 µM in PBS, 10 min, 4 °C, Protocol 1. The protocol: For the fixation of the cells, the DMEM medium was removed from the glass bottom dish after incubation for 24 h, and the cells were washed with 1 mL of PBS. Subsequently, 1 mL of 4% paraformaldehyde in PBS solution was added to the glass bottom dish and the mixture was incubated for 30 min at room temperature. Thereafter, the cells were washed five times with 1 mL of PBS and used for the cell staining experiments.
After fixation of the cells (Section 2.10.2), 300 µL of the 10 µM staining solution was added to the glass bottom dish. The cells were incubated for 10 min at 4 °C in a dark chamber. After incubation, the cells were washed five times with 1 mL of PBS and used subsequently for fluorescence microscopy.
An Axiovert 200 inverted microscope (Carl Zeiss AG, Jena, Germany) with a ×100 oil immersion objective and a digital camera (SPOT RT SE from Diagnostic Instruments Inc., Livingston, UK) were used. The camera was controlled by MetaVue software (version 6.3r6, Visitron, Germany). Two different filter sets were employed, the FITC filter set (Carl Zeiss Filter Set 10 bandwidth excitation filter 450–490, color splitter 510, bandpass filter 515–565) and the TRITC filter set (Carl Zeiss Filter Set 15, bandpass excitation filter 546/12, dichroic mirror 580, emission filter Long Pass 590).
Using the free imaging software ImageJ (1.53f51, NIH, USA), squares with an edge length of 50 × 50 pixels, corresponding to an area of 9 µm^2, were randomly placed in a cell and signals with Full Width at Half Maximum (FWHM) of ≤5 pixels (~300 nm) were counted as a KCa3.1 channel. For the evaluation, 7 squares were analyzed.
For the staining experiments, the non-small cell lung cancer cell line A549-3R with a high expression of the KCa3.1 channel was employed. An optimized staining protocol (Protocol 1) described previously was followed to analyze the imaging properties of the fluorescent probes. In brief, the 10 µM solution of the senicapoc–dye conjugate in PBS was added to adherent A549-3R cells in a glass bottom dish and the set-up was incubated for 10 min at 4 °C in a dark chamber. After careful washing, the cells were analyzed with a fluorescence microscope.
The images were analyzed with respect to size and density of the fluorescent dots. For this purpose, a square with a size of 50 × 50 pixels was randomly placed on the cell images using ImageJ. The intensities of the signals within the square were analyzed to calculate the Full Width at Half Maximum (FWHM) for each selected dot, which represents a measure for the signal size. For the accurate representation of a single KCa3.1 channel, the FWHM should be in the range of five pixels. Signals with a FWHM of ≤5 pixels within the square were regarded as labeled KCa3.1 channels and the number of identified channels was used to determine the density of the ion channels on the cells (Figure S8, Supplementary Materials).

The nature of data set [5]: logD7.4 by micro shake flask method (n-octanol / MOPS buffer pH 7.4, LC-MS). The data set is classed as physicochemical. The following applies: read-out: logD7.4 ± SD (Micro Shake Flask). The protocol: The logD7.4 values were recorded using the micro shake flask method. In this method, the test compound is distributed between n-octanol and MOPS buffer pH 7.4, and the amount of the compound in the buffer layer is determined by mass spectrometry.
The new fluorescent dyes were designed to increase the polarity and reduce the non-specific labeling of lipophilic membranes of cells. Moreover, a higher polarity should lead to increased water solubility and thus improved handling of the dyes. The logD7.4 value was recorded as a measure of the polarity/lipophilicity using our recently published micro-shake flask method. According to this method, the amount of compound in the aqueous 3-morpholinopropanesulfonic acid (MOPS) buffer pH 7.4 was determined by LC-MS [31, 32].

Data set [6] can be described thus: UV-Vis absorption and time-resolved photoluminescence spectroscopy. The data set is classed as physicochemical. As to conditions: for Absorption λmax / Emission λmax / Stokes Shift / ΦF absolute quantum yield / τ photoluminescence lifetime: c = 10^−5 M, 298 K. The protocol: All solvents used were of spectrometric grade (Uvasol®). UV-visible absorption spectra were measured using a Shimadzu UV–VIS spectrophotometer (UV-3600i). Photoluminescence quantum yields were measured with a Hamamatsu Photonics absolute PL quantum yield measurement system (C9920-02) equipped with a L9799-01 CW Xe light source (150 W), a monochromator, a C7473 photonic multi-channel analyzer, an integrating sphere and employing U6039-05 software, version 3.6.0. (Hamamatsu Photonics, Ltd., Shizuoka, Japan). Steady-state excitation and emission spectra were recorded on a FluoTime 300 spectrometer from PicoQuant equipped with a 300 W ozone-free Xe lamp (200–1100 nm), a 10 W Xe-flash lamp (200–1100 nm, pulse width ca. 1 µs) with repetition rates of 1–300 Hz, a double-grating excitation monochromator (Czerny–Turner type, grating with 1200 lines/mm, blaze wavelength: 300 nm), diode lasers (pulse width < 20 ps) operated by a computer-controlled laser driver PDL-828 “Sepia II” (repetition rate up to 80 MHz, burst mode for slow and weak decays), two emission monochromators (Czerny–Turner, selectable between double-grating blazed at 500 nm with 2.7 nm/mm dispersion and 1200 lines/mm, or single-grating blazed at 1250 nm with 5.4 nm/mm dispersion and 600 lines/mm) with adjustable slit width between 25 μm and 7 mm. Glam–Thompson polarizers for excitation (after the Xe-lamps) and emission (after the sample) were used. Different sample holders (Peltier-cooled mounting unit ranging from −15 to 110 °C or an adjustable front-face sample holder), along with two detectors (namely a PMA Hybrid-07 from PicoQuant with transit time spread FWHM < 50 ps, 200–850 nm, or a H10330C-45-C3 NIR detector with transit time spread FWHM 0.4 ns, 950–1400 nm from Hamamatsu) were used. Steady-state spectra and photoluminescence lifetimes were recorded in TCSPC mode by a PicoHarp 300 (minimum base resolution 4 ps) or in MCS mode by a TimeHarp 260 (where up to several ms can be traced). Emission and excitation spectra were corrected for source intensity (lamp and grating) by standard correction curves. For samples with lifetimes in the ns order, an instrument response function calibration (IRF) was performed using a diluted Ludox® dispersion. Lifetime analysis was performed using the commercial EasyTau 2 software, version 2.3. (PicoQuant, Berlin, Germany). The quality of the fit was assessed by minimizing the reduced chi squared function (χ^2) and visual inspection of the weighted residuals and their autocorrelation.
Fluorescence microscopy was used for the analysis of KCa3.1 channel labeling of cells with fluorescent dyes. Therefore, the photophysical properties of fluorescently labeled senicapoc derivatives 15a, 21a, and 22 were determined. Since the fluorophores are separated from the rest of the molecule by a linker, the photophysical properties could be recorded using azide precursors 6a, 6b, and 7a as well.

“And” between values parts separate entries of the source, which are not always exact repeats. Equal values may be shown once. “Also recorded” adds a separate entry of the source.

In data set [1], `CO[B-]1(F)n2c(C)cc(C)c2C(c2ccc(OCCOCCn3cc(COc4ccc(C(C(N)=O)(c5ccccc5)c5ccc(F)cc5)cc4)nn3)cc2)=C2C(C)=CC(C)=[N+]21` (centres unmarked) [10a] returned a chromatographic logP of 4.4. Also, in data set [2], the “logD7.4 ± SD (Micro Shake Flask)” value is listed as 4.60 ± 0.23. The staining properties entry in data set [3] was “promising staining properties”.
For the compound `CCC1=C(C)C2=C(c3ccc(OCCOCCN=[N+]=[N-])cc3)c3c(C)c(CC)c(C)n3[B-](F)(OC)[N+]2=C1C` (centres unmarked) [7b, 8-{4-[2-(2-Azidoethoxy)ethoxy]phenyl}-2,6-diethyl-4-fluoro-4-methoxy-1,3,5,7-tetramethyl-4-bora-3a,4a-diaza-s-indacene], the “staining pattern of fixed A549-3R tumor cells” value (from here on “staining pattern”) in data set [4] was “a punctate staining pattern characteristic for the interaction with the ion channel was not observed; also recorded: high fluorescence intensity inside and around the nucleus”.
Take `CCC1=C(C)C2=C(CCCCn3cc(COc4ccc(C(C(N)=O)(c5ccccc5)c5ccc(F)cc5)cc4)nn3)c3c(C)c(CC)c(C)n3[B-](F)(OC)[N+]2=C1C` (centres unmarked) [16b, 2-[4-({1-[4-(2,6-Diethyl-4-fluoro-4-methoxy-1,3,5,7-tetramethyl-4-bora-3a,4a-diaza-s-indacen-8-yl)butyl]-1,2,3-triazol-4-yl}methoxy)phenyl]-2-(4-fluorophenyl)-2-phenylacetamide]: in data set [1], the chromatographic logP was 5.4. For the same compound, in data set [4], the “staining pattern” value is listed as “unspecific staining; also recorded: unspecific labeling”.
With `NC(=O)C(c1ccccc1)(c1ccc(F)cc1)c1ccc(OCCOCCOCCOCCNC(=S)Nc2ccc3c(c2)C(=O)OC32c3ccc(O)cc3Oc3cc(O)ccc32)cc1` (centres unmarked) [21b, 2-(4-{12-[3-(3′,6′-Dihydroxy-3-oxo-3H-spiro[[2]benzofuran-1,9′-xanthen]-5-yl)thioureido]-1,4,7,10-tteraoxadodecan-1-yl}phenyl)-2-(4-fluorophenyl)-2-phenylacetamide], the chromatographic logP in data set [1] (HPLC at pH 6.0) was found to be 1.3. In data set [4], the “staining pattern” value is “A weak green fluorescence of the membrane and an intense staining of the nucleus”.
For `CO[B-]1(F)n2c(C)cc(C)c2C(CCCCn2cc(COc3ccc(C(C(N)=O)(c4ccccc4)c4ccc(F)cc4)cc3)nn2)=C2C(C)=CC(C)=[N+]21` (centres unmarked) [16a, 2-[4-({1-[4-(4-Fluoro-4-methoxy-1,3,5,7-tetramethyl-4-bora-3a,4a-diaza-s-indacen-8-yl)butyl]-1,2,3-triazol-4-yl}methoxy)phenyl]-2-(4-fluorophenyl)-2-phenylacetamide], the logD in data set [5] was greater than 5. Also, the chromatographic logP in data set [1] was 4. In data set [4], the “staining pattern” value is listed as “unspecific staining; also recorded: unspecific labeling”.
Consider `NC(=O)C(c1ccccc1)(c1ccc(F)cc1)c1ccc(OCCOCCNC(=S)Nc2ccc3c(c2)C(=O)OC32c3ccc(O)cc3Oc3cc(O)ccc32)cc1` (centres unmarked) [21a, 2-[4-(2-{2-[3-(3′,6′-Dihydroxy-3-oxo-3H-spiro[[2]benzofuran-1,9′-xanthen]-5-yl)thioureido]ethoxy}ethoxy)phenyl]-2-(4-fluorophenyl)-2-phenylacetamide], for which the logD in data set [5] stood at 1.69 ± 0.04. The compound further yielded a chromatographic logP in data set [1] (HPLC at pH 6.0) of 1.5. Moreover, in data set [6] (measured in H2O), the “Absorption λmax” value was 496 nm, the “Emission λmax” value is 521 nm, the “Stokes Shift” value worked out at 25 nm and the “ΦF absolute quantum yield” value was determined as 0.32 ± 0.02. The τ photoluminescence lifetime in data set [6] (measured in H2O) came out at 4.21 ± 0.02 ns. The “staining pattern” value in data set [4] was “A weak green fluorescence of the membrane and an intense staining of the nucleus”.
For `CC1=CC(C)=[N+]2C1=C(CCCCn1cc(COc3ccc(C(C(N)=O)(c4ccccc4)c4ccc(F)cc4)cc3)nn1)c1c(C)cc(C)n1[B-]2(F)F` (centres unmarked) [15a, 2-[4-({1-[4-(4,4-Difluoro-1,3,5,7-tetramethyl-4-bora-3a,4a-diaza-s-indacen-8-yl)butyl]-1,2,3-triazol-4-yl}methoxy)phenyl]-2-(4-fluorophenyl)-2-phenylacetamide], in data set [1], the chromatographic logP is 4.8. The compound further registered a quantum yield in data set [6] (see Table 2) of 96%. Further, in data set [6] (solution (CH2Cl2 or CH3CN)), the “Absorption λmax” value stood at 501 nm, the “Emission λmax” value turned out to be 513 nm, the “Stokes Shift” value stood at 12 nm and the “ΦF absolute quantum yield” value came out at 0.96 ± 0.04. The τ photoluminescence lifetime in data set [6] (solution (CH2Cl2 or CH3CN)) was 5.77 ns and 5.77 ± 0.02 ns. Further, the “staining pattern” value in data set [4] is recorded as “unspecific staining; also recorded: unspecific labeling”.
`CCC1=C(C)C2=C(c3ccc(OCCOCCn4cc(COc5ccc(C(C(N)=O)(c6ccccc6)c6ccc(F)cc6)cc5)nn4)cc3)c3c(C)c(CC)c(C)n3[B-](F)(F)[N+]2=C1C` (centres unmarked) [9b, 2-{4-[(1-{2-[4-(2,6-Diethyl-4,4-difluoro-1,3,5,7-tetramethyl-4-bora-3a,4a-diaza-s-indacen-8-yl)phenoxy]ethoxyethyl}-1,2,3-triazol-4-yl)methoxy]phenyl}-2-(4-flluorophenyl)-2-phenylacetamide] came in with a chromatographic logP in data set [1] of 6.7. Also, in data set [4], the “staining pattern” value is “unspecific staining; also recorded: unspecific labeling”.

The values above are taken from article PMC11859423, “Fluorescent Probes to Image the KCa3.1 Channel in Tumor Cells” (Pharmaceutics, 2025).
